Columns and labels:
huPPARδ = target: T1, huPPARδ (Homo sapiens, UniProt Q03181); test: Cotransfection assay in CV-1 cells, GAL4 chimeric system, luciferase reporter
T1 sequence (Q03181 211-441 limits assumed): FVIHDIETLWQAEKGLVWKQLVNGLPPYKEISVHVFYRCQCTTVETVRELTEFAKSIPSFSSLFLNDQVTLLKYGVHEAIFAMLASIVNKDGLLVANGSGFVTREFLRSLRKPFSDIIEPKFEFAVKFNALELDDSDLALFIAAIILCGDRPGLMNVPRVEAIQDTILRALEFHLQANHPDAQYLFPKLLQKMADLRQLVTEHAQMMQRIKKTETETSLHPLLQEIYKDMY
Experimental: (§1) Cotransfection assays are carried out in CV-1 cells. The reporter plasmid contains an acylCoA oxidase (AOX) PPRE and TK promoter upstream of the luciferase reporter cDNA. Appropriate PPARs and RXRα are constitutively expressed using plasmids containing the CMV promoter. Since for PPARα and PPARβ, interference by endogenous PPARγ in CV-1 cells is an issue, in order to eliminate such interference, a GAL4 chimeric system is used in which the DNA binding domain of the transfected PPAR is replaced by that of GAL4, and the GAL4 response element is utilized in place of the AOX PPRE. Receptor activation by compounds of the present invention is determined relative to PPARα agonist and PPARγ agonist reference molecules to obtain percent efficacies. EC50 values are determined by computer fit to a concentration-response curve. […] In some cases, a single high concentration of agonist (10 μM) was used.

huPPARα = target: T2, huPPARα (Homo sapiens, UniProt Q07869); test: as above
T2 sequence (Q07869 200-468 limits assumed): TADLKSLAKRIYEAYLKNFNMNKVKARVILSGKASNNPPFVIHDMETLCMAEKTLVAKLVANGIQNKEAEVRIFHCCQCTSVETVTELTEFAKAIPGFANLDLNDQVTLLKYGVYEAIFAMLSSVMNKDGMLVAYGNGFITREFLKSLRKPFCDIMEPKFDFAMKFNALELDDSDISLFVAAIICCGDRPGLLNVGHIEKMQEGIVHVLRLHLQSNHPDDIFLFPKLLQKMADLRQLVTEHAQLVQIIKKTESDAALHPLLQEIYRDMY
Experimental: as §1

huPPARγ = target: T3, huPPARγ (Homo sapiens, UniProt P37231); test: Cotransfection assay in CV-1 cells, AOX PPRE luciferase reporter; assay type: cell-based
T3 construct: expressed in transfected cells; host or cells: CV-1 cells
T3 sequence (P37231 1-505): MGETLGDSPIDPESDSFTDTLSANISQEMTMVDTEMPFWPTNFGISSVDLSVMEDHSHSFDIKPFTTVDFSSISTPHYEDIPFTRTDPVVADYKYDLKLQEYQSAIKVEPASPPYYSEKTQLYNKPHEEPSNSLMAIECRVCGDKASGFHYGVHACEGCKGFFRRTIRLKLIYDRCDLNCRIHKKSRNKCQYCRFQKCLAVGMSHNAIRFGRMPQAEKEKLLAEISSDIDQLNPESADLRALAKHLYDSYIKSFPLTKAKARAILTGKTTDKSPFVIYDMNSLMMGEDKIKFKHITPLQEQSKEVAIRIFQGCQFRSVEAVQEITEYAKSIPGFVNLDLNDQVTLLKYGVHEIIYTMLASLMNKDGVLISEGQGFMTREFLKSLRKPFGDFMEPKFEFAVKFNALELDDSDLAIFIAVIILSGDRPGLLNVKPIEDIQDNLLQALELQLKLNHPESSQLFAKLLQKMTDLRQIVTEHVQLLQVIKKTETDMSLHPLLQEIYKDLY
T3 sequence (P19793 1-462 partner): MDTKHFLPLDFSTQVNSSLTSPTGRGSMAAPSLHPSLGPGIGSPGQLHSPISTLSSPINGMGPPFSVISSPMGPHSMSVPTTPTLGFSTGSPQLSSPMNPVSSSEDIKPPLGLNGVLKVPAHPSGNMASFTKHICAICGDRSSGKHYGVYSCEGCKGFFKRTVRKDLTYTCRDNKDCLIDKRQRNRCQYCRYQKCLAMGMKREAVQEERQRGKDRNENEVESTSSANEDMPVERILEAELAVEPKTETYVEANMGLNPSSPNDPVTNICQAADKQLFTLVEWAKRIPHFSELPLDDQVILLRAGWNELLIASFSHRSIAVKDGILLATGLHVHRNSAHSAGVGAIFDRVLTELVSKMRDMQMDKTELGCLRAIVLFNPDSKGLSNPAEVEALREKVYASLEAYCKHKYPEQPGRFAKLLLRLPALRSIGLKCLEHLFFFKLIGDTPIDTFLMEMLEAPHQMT
Experimental: as §1

hu apoAI transgenic mice = test: Evaluation of triglyceride and cholesterol level in HuapoAI transgenic mice; assay type: in vivo; details: 100 mg/kg oral gavage daily for 7 days

| SMILES | EC50 (huPPARδ) [nM] | Emax (huPPARδ; CV-1, read-out: Eff % δ) [%] | EC50 (huPPARα) [nM] | Emax (huPPARα; CV-1, read-out: Eff % α) [%] | Emax (huPPARγ; CV-1, Table 4, percent efficacy relative to reference agonist, read-out: Eff % γ) [%] | EC50 (huPPARγ; Table 4, effect of X/Y, scaffold drawing 255) [nM] | high-density lipoprotein cholesterol (HDLc) peak area (hu apoAI transgenic mice; FPLC of pooled sera, vehicle 47 to 62 v-sec) | mean percent increase of HDLc (hu apoAI transgenic mice; FPLC of pooled sera, versus vehicle) [%] | average triglycerides values (hu apoAI transgenic mice; serum, vehicle about 60 to 80 mg/dl) [mg/dL] | mean elevation of total serum cholesterol (hu apoAI transgenic mice; versus vehicle) [%] | mean reduction of triglycerides (hu apoAI transgenic mice; versus vehicle) [%] |
| --- | --- | --- | --- | --- | --- | --- | --- | --- | --- | --- | --- |
| CCc1ccc(OC(C)CCSc2ccc(OCC(=O)O)c(C)c2)c(C(=O)c2ccccc2)c1 (centres unmarked) [S/O] | 23 | 112 | 2890 | 39 | 63 | 262 | – | – | – | – | – |
| CC(C)OC(=O)C(C)(C)Oc1ccc(C(=O)c2ccc(Cl)cc2)cc1 [fenofibrate] | – | – | – | – | – | – | 68-96 v-sec | 48 | 33 to 58 | 41 | 37 |

— patent publication US20060257987A1, “Ppar modulators” (priority 2003, published 2006)
